{"source": "paper PMC9388626", "about": "“STUB1 is an intracellular checkpoint for interferon gamma sensing” (Scientific Reports, 2022)", "key": {"DU145 cells [1]": {"test_system": "DU145 cells", "assay": "Growth inhibition, CellTiter-Glo 2.0 (ATP)", "format": "cell-based, human", "conditions": "DU145 (prostate), 10 ng ml^−1 each, 6 days", "protocol": "(§1) Parental and CRISPR-edited tumour cells were seeded in a cell density of 1800 (DU145), 2000 (PC-3), or 10,000 (MCF7) per well in 96-well CellCarrier plate (PelkinElmer, #6005550) filled with 50 µl culture media + 10% FBS. After 20–24 h incubation, the cells were treated with 10 ng ml^−1 of recombinant human IFNγ (R&D Systems, 285-IF-100), 10 ng ml^−1 of recombinant human TNFα (R&D Systems, 210-TA-020/CF) or a combination of both, by adding an equal volume of the complete culture media containing the cytokines. After incubating for 6 days without media change, the CellTiter-Glo 2.0 (Promega, G9243) or CellTiter-Fluor (Promega, G6082) assay were performed according to manufacturer’ instructions. The luminescence or fluorescence (Ex: 380–400 nm, Em: 505 nm) were detected by Inifinte M1000 PRO (Tecan). For CellTiter-Fluor, triplicate wells without cells were included to determine background fluorescence and the signal average was used for background substraction."}, "PC-3 cells [2]": {"test_system": "PC-3 cells", "assay": "Growth inhibition, CellTiter-Glo 2.0 (ATP)", "format": "cell-based, human", "conditions": "PC-3 (prostate), 10 ng ml^−1 each, 6 days", "protocol": "as §1"}, "DU145 cells [3]": {"test_system": "DU145 cells", "assay": "Growth inhibition, CellTiter-Fluor (live-cell protease activity)", "format": "cell-based, human", "design": "scale not given here", "conditions": "10 ng ml-1 each, 6-day", "protocol": "as §1"}, "PC-3 cells [4]": {"test_system": "PC-3 cells", "assay": "Growth inhibition, CellTiter-Fluor (live-cell protease activity)", "format": "cell-based, human", "design": "scale not given here", "conditions": "10 ng ml-1 each, 6-day", "protocol": "as §1"}, "MCF7 cells": {"test_system": "MCF7 cells", "assay": "Growth inhibition, CellTiter-Fluor (live-cell protease activity)", "format": "cell-based, human", "design": "scale not given here", "conditions": "10 ng ml-1 each, 6-day", "protocol": "as §1"}, "B16-F10 cells": {"test_system": "B16-F10 cells", "assay": "Validation of monoclonal Stub1-knockout lines (Western, ICE CRISPR analysis)", "format": "cell-based, murine", "conditions": "single clone from Stub1-knockout B16-F10 cells", "protocol": "Tumour cells were genetically edited by electroporating the Cas9/crRNA/tracrRNA or Cas9/sgRNA ribonucleoprotein (RNP) complexes into cells using the 4D-nucleofector system (Lonza). To prepare the guide RNA complex, a 1:1 mixture of Alt-R crRNA and tracrRNA (50 µM each, IDT) in nuclease-free duplex buffer (IDT) was heated at 95 °C for 5 min, followed by cooling to room temperature. The crRNA/tracrRNA complex or the sgRNA (150 pmol) was mixed with Alt-R S.p. HiFi Cas9 Nuclease V3 (100 pmol, IDT, #1081060), and the resulting mixture was incubated at room temperature for 10 min to form the final RNP complexes which were used immediately. In parallel, the harvested tumour cells were rinsed with PBS. After re-suspending in 20 µl nucleofactor solution (Lonza), the cell suspension was added to the final RNP complexes (4.6 µl) in microcentrifuge tube. The resulting cell suspension was transferred to a designated well of nucleocuvette strip which was then pulsed with the nucleofector system using a preset program. After pulsing, culture media (75 µl) was added and the cell suspension was transferred to a designated well of a 12-well plate filled with 1.0 ml culture media. After 48 h incubation, the CRISPR-edited B16-F10 were subcloned by limiting dilution. The monoclonal cell lines were validated by Western blotting and analyzing the Sanger sequencing results of the PCR amplicon (~ 800 bp) flanking the crRNA-targeted site using ICE v2 CRISPR analysis tool (Synthego). For CT26, the cells were sorted for the top 50th percentile of IFNGR1-high population using BD FACSAria to enrich for the Stub1-null cells (Supplementary Fig. 10a). Human tumour cells, e.g., DU145, PC-3 and MCF7, were used right after the CRISPR editing. Sorting or subcloning was not applied to the human cell lines, since these lines were studied for a brief period in in vitro setting. Loss of STUB1 protein in the human cell lines was confirmed by Western blot analysis."}, "[5]": {"test_system": "B16-F10 tumour in C57BL/6 J mice", "assay": "Syngeneic B16-F10 model, GVAX then anti-PD-1", "format": "in vivo, mouse", "conditions": "N 15, in mm³ (unit assumed)", "protocol": "Female C57BL/6 J mice (stock no: 000664, Jackson Laboratory) between 7–8 weeks of age weighing approximately 18–22 g were used for the study. […] One day after tumour inoculation, mice were dosed subcutaneously into the abdomen with 1.0 × 10^6 per 100 µl GM-CSF-secreting B16 (GVAX) cells that had been irradiated with 35 Gy from a ^137Cs source discharging 124 rads min^−1. GVAX treatment was repeated on day 4. […] The treatment was repeated on day 9, 12, and 15. The start of the study where tumour inoculation is conducted is designated as day 0.\nBody weights were taken twice per week."}}, "data": [{"substance": "IFNγ", "values": [{"measurement": "Growth inhibition of PTPN2- or STUB1-null cells", "setting": "DU145 cells [1]", "result": "sensitized PTPN2- or STUB1-null prostate tumour cells to growth inhibition"}, {"measurement": "Growth inhibition of PTPN2- or STUB1-null cells", "setting": "PC-3 cells [2]", "result": "sensitized PTPN2- or STUB1-null prostate tumour cells to growth inhibition"}, {"measurement": "FC in live-cell protease activity relative to parental cells", "setting": "DU145 cells [3]; DU145 PTPN2 sgRNA, replicate 1", "result": -0.09}, {"measurement": "FC in live-cell protease activity relative to parental cells", "setting": "DU145 cells [3]; DU145 PTPN2 sgRNA, replicate 2", "result": -0.0242}, {"measurement": "FC in live-cell protease activity relative to parental cells", "setting": "DU145 cells [3]; DU145 PTPN2 sgRNA, replicate 3", "result": 0.13}, {"measurement": "FC in live-cell protease activity relative to parental cells", "setting": "DU145 cells [3]; DU145 Parental, replicate 1", "result": -0.028}, {"measurement": "FC in live-cell protease activity relative to parental cells", "setting": "DU145 cells [3]; DU145 Parental, replicate 2", "result": -0.0441}, {"measurement": "FC in live-cell protease activity relative to parental cells", "setting": "DU145 cells [3]; DU145 Parental, replicate 3", "result": 0.07}, {"measurement": "FC in live-cell protease activity relative to parental cells", "setting": "DU145 cells [3]; DU145 STUB1 sgRNA, replicate 1", "result": -0.68}, {"measurement": "FC in live-cell protease activity relative to parental cells", "setting": "DU145 cells [3]; DU145 STUB1 sgRNA, replicate 2", "result": -0.65}, {"measurement": "FC in live-cell protease activity relative to parental cells", "setting": "DU145 cells [3]; DU145 STUB1 sgRNA, replicate 3", "result": -0.52}, {"measurement": "FC in live-cell protease activity relative to parental cells", "setting": "DU145 cells [3]; DU145 control sgRNA, replicate 1", "result": 0.0364}, {"measurement": "FC in live-cell protease activity relative to parental cells", "setting": "DU145 cells [3]; DU145 control sgRNA, replicate 2", "result": 0.13}, {"measurement": "FC in live-cell protease activity relative to parental cells", "setting": "DU145 cells [3]; DU145 control sgRNA, replicate 3", "result": 0.0663}, {"measurement": "FC in live-cell protease activity relative to parental cells", "setting": "PC-3 cells [4]; PC-3 PTPN2 sgRNA, replicate 1", "result": -0.90}, {"measurement": "FC in live-cell protease activity relative to parental cells", "setting": "PC-3 cells [4]; PC-3 PTPN2 sgRNA, replicate 2", "result": -0.39}, {"measurement": "FC in live-cell protease activity relative to parental cells", "setting": "PC-3 cells [4]; PC-3 PTPN2 sgRNA, replicate 3", "result": -0.44}, {"measurement": "FC in live-cell protease activity relative to parental cells", "setting": "PC-3 cells [4]; PC-3 Parental, replicate 1", "result": 0.02}, {"measurement": "FC in live-cell protease activity relative to parental cells", "setting": "PC-3 cells [4]; PC-3 Parental, replicate 2", "result": -0.11}, {"measurement": "FC in live-cell protease activity relative to parental cells", "setting": "PC-3 cells [4]; PC-3 Parental, replicate 3", "result": 0.09}, {"measurement": "FC in live-cell protease activity relative to parental cells", "setting": "PC-3 cells [4]; PC-3 STUB1 sgRNA, replicate 1", "result": -0.57}, {"measurement": "FC in live-cell protease activity relative to parental cells", "setting": "PC-3 cells [4]; PC-3 STUB1 sgRNA, replicate 2", "result": -0.73}, {"measurement": "FC in live-cell protease activity relative to parental cells", "setting": "PC-3 cells [4]; PC-3 STUB1 sgRNA, replicate 3", "result": -0.72}, {"measurement": "FC in live-cell protease activity relative to parental cells", "setting": "PC-3 cells [4]; PC-3 control sgRNA, replicate 1", "result": 0.0759}, {"measurement": "FC in live-cell protease activity relative to parental cells", "setting": "PC-3 cells [4]; PC-3 control sgRNA, replicate 2", "result": -0.0157}, {"measurement": "FC in live-cell protease activity relative to parental cells", "setting": "PC-3 cells [4]; PC-3 control sgRNA, replicate 3", "result": -0.15}, {"measurement": "FC in live-cell protease activity relative to parental cells", "setting": "MCF7 cells; MCF7 PTPN2 sgRNA, replicate 1", "result": -0.23}, {"measurement": "FC in live-cell protease activity relative to parental cells", "setting": "MCF7 cells; MCF7 PTPN2 sgRNA, replicate 2", "result": -0.32}, {"measurement": "FC in live-cell protease activity relative to parental cells", "setting": "MCF7 cells; MCF7 PTPN2 sgRNA, replicate 3", "result": -0.34}, {"measurement": "FC in live-cell protease activity relative to parental cells", "setting": "MCF7 cells; MCF7 Parental, replicate 1", "result": 0.0179}, {"measurement": "FC in live-cell protease activity relative to parental cells", "setting": "MCF7 cells; MCF7 Parental, replicate 2", "result": 0.0179}, {"measurement": "FC in live-cell protease activity relative to parental cells", "setting": "MCF7 cells; MCF7 Parental, replicate 3", "result": -0.0365}, {"measurement": "FC in live-cell protease activity relative to parental cells", "setting": "MCF7 cells; MCF7 STUB1 sgRNA, replicate 1", "result": -1.31}, {"measurement": "FC in live-cell protease activity relative to parental cells", "setting": "MCF7 cells; MCF7 STUB1 sgRNA, replicate 2", "result": -1.18}, {"measurement": "FC in live-cell protease activity relative to parental cells", "setting": "MCF7 cells; MCF7 STUB1 sgRNA, replicate 3", "result": -1.16}, {"measurement": "FC in live-cell protease activity relative to parental cells", "setting": "MCF7 cells; MCF7 control sgRNA, replicate 1", "result": -0.0449}, {"measurement": "FC in live-cell protease activity relative to parental cells", "setting": "MCF7 cells; MCF7 control sgRNA, replicate 2", "result": 0.05}, {"measurement": "FC in live-cell protease activity relative to parental cells", "setting": "MCF7 cells; MCF7 control sgRNA, replicate 3", "result": 0.01}]}, {"substance": "gStub1 #1 (guide GCATTGCTAAGAAGAAGCGC; chemistry not given here)", "values": [{"measurement": "Comment (knock-out by Western blot and ICE analysis)", "setting": "B16-F10 cells", "result": "complete knock-out as assessed by Western blot and ICE analysis"}, {"measurement": "Indel", "setting": "B16-F10 cells", "result": "-12 -15"}, {"measurement": "Indel % (by Synthego ICE)", "setting": "B16-F10 cells", "result": 93, "unit": "%"}, {"measurement": "tumour volume (Fig. 6b)", "setting": "[5]; day 5, Mean", "result": 50.28}, {"measurement": "tumour volume (Fig. 6b)", "setting": "[5]; day 8, Mean", "result": 251.2}, {"measurement": "tumour volume (Fig. 6b)", "setting": "[5]; day 10, Mean", "result": 457.3}, {"measurement": "tumour volume (Fig. 6b)", "setting": "[5]; day 12, Mean", "result": 680.5}, {"measurement": "tumour volume (Fig. 6b)", "setting": "[5]; day 14, Mean", "result": 866}, {"measurement": "tumour volume (Fig. 6b)", "setting": "[5]; day 16, Mean", "result": 944.8}]}]}
